Experimental data reported in patent US9840498B2, “Substituted quinazolin-4-one derivatives” (NOVARTIS AG, priority 2013, dated 2017).

Assays:
[1] = molecular target: human phosphoinositide-3 kinase (PI3K) alpha (Homo sapiens (Human), UniProt P42336); test: PI3K-mediated Akt 1/2 (S473) phosphorylation in Rat-1 cells overexpressing PI3K alpha; type: cell-based, rat cells expressing human PI3K alpha; conditions: cellular assay, p-AKT(Ser473), read-out: Cell PI3K alpha IC50
Protocol: (§1) 2.1 Phosphoinositide-3 kinase (PI3K)-Mediated Akt 1/2 (S473) Phosphorylation in Rat-1 Cells
(§2) Rat-1 cells stably overexpressing a myristoylated form of the catalytic subunit of human phosphoinositide-3 kinase (PI3K) alpha, beta or delta were plated in 384-well plates at a density of 7500 (PI3K alpha), 6200 (PI3K beta), or 4000 (PI3K delta) cells in 30 ul complete growth medium (Dulbecco's modified Eagle's medium (DMEM high glucose) supplemented with 10% (v/v) fetal bovine serum, 1% (v/v) MEM non essential amino acids, 10 mM HEPES, 2 mM L-glutamine, 10 μg/mL puromycin and 1% (v/v) Penicillin/Streptomycin) and were incubated at […]/5% CO2/95% humidity for 24 h. Compounds were diluted in 384-well compound plates (compound master plates), to obtain 8-point serial dilutions for 40 test compounds in 90% DMSO, as well as 4 reference compounds plus 16 high controls and 16 low (inhibited) controls. Predilution plates were prepared by dispensing pipetting 250 nl of compound solutions into 384-well polypropylen plates (daugther plates), using a Hummingwell nanoliter dispenser. Compounds were prediluted by the addition of 49.75 ul complete growth medium. 10 ul of prediluted compound solution were transferred to the cell plate using a 384-well pipettor, resulting in a final DMSO concentration of 0.11%. Cells were incubated for 1 h at […]/5% CO2/95% humidity. The supernatant was removed, the cells were lysed in 20 ul of lysis buffer for AlphaScreen® SureFire® detection.
(§3) For detection of p-AKT(Ser473), the SureFire® p-Akt 1/2 (Ser473) Assay Kit (PerkinElmer, U.S.A.) was used. 5 ul of cell lysate was transferred to 384-well low volume Proxiplates for detection using a 384-well pipettor. Addition of AlphaScreen® SureFire® reagents was done according to the manufacturer's protocol. First, 5 ul of reaction buffer plus activation buffer mix containing AlphaScreen® acceptor beads was added, the plate was sealed, and incubated on a plate shaker for 2 hours at room temperature. Second, 2 ul of dilution buffer containing AlphaScreen® donor beads was added, and the plate was incubated on plate shaker as above for a further 2 hours. The plate was read on an AlphaScreen® compatible plate reader, using standard AlphaScreen® settings. Alternatively, p-AKT(Ser473) was detected with the CisBio HTRF Assay Kit: As positive control, 0.9 mM of 1-(3-(trifluoromethyl)-4-(piperazin-1-yl)phenyl)-8-(6-methoxypyridin-3-yl)-3-methyl-1H-imidazo[4,5-c]quinolin-2(3H)-one maleic acid salt in 90% (v/v) DMSO was added to the compound master plate. For compound testing, the cells were seeded at a density of 4000 (Rat-1_PI3Kdelta), 8000 (Rat-1_PI3Kalpha), or 6500 (Rat-1_PI3Kbeta) cells in 30 ul complete growth medium into 384-well plates, with a plastic surface promoting the adhesion of cells and their growth (assay plates) and were grown at 37° C./5% CO2/90% humidity for 24 h. Some 10 ul of the compound predilutions from the daughter plate were then transferred to the cells. After treatment with compound for 1 h, medium was removed and cells were lysed by the addition of 20 ul lysis buffer supplemented with blocking buffer. Detection of p-AKT(Ser473) was performed with the HTRF pAKT (Ser473) assay kit according to the manufacturer's instructions using 16 ul of cell lysate in a total detection volume of 20 ul.

PI 3-Kinase Gamma = PI 3-Kinase Gamma (Homo sapiens (Human), UniProt P48736); test: Cellular U937 AKT assay for PI 3-kinase gamma; type: cell-based; conditions: U937 cells, MIP1α-stimulated AKT phosphorylation, read-out: Cell PI3K gamma IC50
Protocol: The U937 monocyte cell line is maintained in a basal medium of RPMI 1640 supplemented with 10% heat inactivated FCS, 100 U/ml Penicillin, 100 ug/ml streptomycin and 2 mM L-glutamine (Invitrogen). U937 suspension culture is maintained by seeding cells at a density of 0.125×10^6 cells per ml in fresh medium every three or four days. Cells are incubated at 37° C., 5% CO2. […] Before beginning the cell manipulations described below, the MSD (Meso Scale Discovery) assay plate is blocked by addition of 150 ul/well blocking buffer supplied and incubated with shaking for a minimum of one hour at room temperature. All steps of the assay must be performed quickly, with accurately timed incubation periods and observing temperature controls where indicated. […] Falcon tube, counted and centrifuged for eight minutes at 300 g at room temperature. Supernatant is aspirated, the cell pellet resuspended and washed once in HBSS (Hank's Balanced Salt Solution) by centrifugation for eight minutes at 300 g at room temperature. The cell pellet is resuspended in HBSS to a concentration of 4×10^6 per ml, and 100 μL of cell suspension added to each well of a flat-bottomed 96-well tissue culture plate. Assay plates are incubated for 1.5 hours at 37° C., 5% CO2 to allow background AKT phosphorylation to reduce before the compound stimulation step. […] Compound concentrations at this stage are 4-times the final concentration required in the assay plate. Cells are stimulated with compound or HBSS 0.8% DMSO by direct transfer of 50 ul/well from the compound dilution plate. The assay plate containing compound-treated cells is then incubated for 30 minutes at 37° C. A standard plate layout is used for all experiments. Compound-treated cells, in addition to positive control wells (“max MIP1α”), are stimulated with 50 μL per well of 40 ng/ml MIP1α (R&D Systems catalogue number 270-LD, lyophilized stock reconstituted to 50 μg/ml with PBS 0.1% BSA). Negative control wells (“min HBSS”), are stimulated with 50 μl/well of HBSS in the absence of MIP1α. […] Cells are incubated with MIP1α for 3 minutes, at 37° C., 5% CO2. After the three minute stimulation period, the assay plate is kept ice cold at all times. Assay plates are centrifuged for 2 minutes at 300 g, 4° C. and supernatant is removed by gently inverting, and then blotting the plate on tissue. Cells are then washed by gentle addition of 150 μL/well of ice cold HBSS and centrifugation at 300 g, for 5 minutes at 4° C. Supernatant is aspirated and the plate blotted as described above. The plate is placed on ice and cells are immediately treated with 35 μL per well of ice cold lysis buffer, prepared according to the kit instructions (per assay plate, to 5 ml of Tris lysis buffer add 100 μl of 50× protease inhibitor solution and 50 μl of each 100× phosphatase inhibitor solutions I and II). Plates are incubated on ice for 20 minutes before centrifugation at 841 g for 5 minutes, 4° C. Block buffer is aspirated from the MSD plate, and the plate washed four times with 300 μl/well Tris wash buffer. 25 μL of cell lysate is then transferred from the assay plate to the washed MSD plate which is sealed and incubated at room temperature for one hour with shaking. The plate is washed four times with 300 μL per well of Tris wash buffer before addition of 25 μL per well of sulfo-tag anti-total AKT/pAKT detection antibody (60 μl of 50× antibody stock is diluted in 1 ml block buffer mixed with 2 ml wash buffer) and incubated at room temperature for one hour with shaking. The plate is washed four times with 300 μl per well of Tris wash buffer and 150 μl per well of Read buffer is added, taking care to avoid the introduction of bubbles. The plate is immediately read using an MSD SECTOR Imager 6000. Results are exported in Excel and the percentage of phosphorylated AKT is calculated using the equation: % Phosphoprotein=((2*Phospho signal)/(Phospho signal+Total signal))*100. […]

[2] = molecular target: human phosphoinositide-3 kinase (PI3K) delta (Homo sapiens (Human), UniProt O00329); test: PI3K-mediated Akt 1/2 (S473) phosphorylation in Rat-1 cells overexpressing PI3K delta; type: cell-based; conditions: cellular assay, p-AKT(Ser473), read-out: Cell PI3K delta IC50
Protocol: as §1, §2, §3

PI 3-Kinase Gamma, sequence (P48736 whole entry): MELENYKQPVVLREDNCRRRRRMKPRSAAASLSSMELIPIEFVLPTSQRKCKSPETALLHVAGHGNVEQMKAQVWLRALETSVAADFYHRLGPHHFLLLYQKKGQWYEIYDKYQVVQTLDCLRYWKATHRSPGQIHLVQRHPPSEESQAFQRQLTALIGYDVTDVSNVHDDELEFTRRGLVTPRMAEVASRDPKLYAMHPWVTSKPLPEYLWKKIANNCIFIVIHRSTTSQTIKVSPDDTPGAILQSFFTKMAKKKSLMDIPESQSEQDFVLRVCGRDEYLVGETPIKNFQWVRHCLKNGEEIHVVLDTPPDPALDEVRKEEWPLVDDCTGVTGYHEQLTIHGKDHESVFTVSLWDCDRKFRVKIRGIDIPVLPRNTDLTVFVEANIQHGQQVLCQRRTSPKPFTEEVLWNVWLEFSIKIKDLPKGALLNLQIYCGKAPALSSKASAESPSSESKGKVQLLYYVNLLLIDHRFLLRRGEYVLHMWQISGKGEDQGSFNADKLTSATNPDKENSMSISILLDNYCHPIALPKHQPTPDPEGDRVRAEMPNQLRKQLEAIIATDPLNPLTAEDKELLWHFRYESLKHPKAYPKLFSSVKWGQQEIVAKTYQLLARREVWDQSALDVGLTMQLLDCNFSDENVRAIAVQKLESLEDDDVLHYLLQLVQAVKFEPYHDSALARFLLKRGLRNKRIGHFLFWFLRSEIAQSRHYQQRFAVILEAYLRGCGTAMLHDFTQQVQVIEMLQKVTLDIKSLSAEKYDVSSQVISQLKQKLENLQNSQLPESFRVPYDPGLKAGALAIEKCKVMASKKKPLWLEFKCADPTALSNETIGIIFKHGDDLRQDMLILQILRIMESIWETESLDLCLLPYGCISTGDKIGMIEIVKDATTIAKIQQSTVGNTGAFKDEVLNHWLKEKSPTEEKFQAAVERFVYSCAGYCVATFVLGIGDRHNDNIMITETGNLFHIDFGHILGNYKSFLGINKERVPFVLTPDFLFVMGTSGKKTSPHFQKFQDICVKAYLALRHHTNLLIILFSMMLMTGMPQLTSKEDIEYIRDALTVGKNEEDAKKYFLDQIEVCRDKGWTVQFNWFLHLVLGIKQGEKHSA
human phosphoinositide-3 kinase (PI3K) delta, sequence (O00329 whole entry): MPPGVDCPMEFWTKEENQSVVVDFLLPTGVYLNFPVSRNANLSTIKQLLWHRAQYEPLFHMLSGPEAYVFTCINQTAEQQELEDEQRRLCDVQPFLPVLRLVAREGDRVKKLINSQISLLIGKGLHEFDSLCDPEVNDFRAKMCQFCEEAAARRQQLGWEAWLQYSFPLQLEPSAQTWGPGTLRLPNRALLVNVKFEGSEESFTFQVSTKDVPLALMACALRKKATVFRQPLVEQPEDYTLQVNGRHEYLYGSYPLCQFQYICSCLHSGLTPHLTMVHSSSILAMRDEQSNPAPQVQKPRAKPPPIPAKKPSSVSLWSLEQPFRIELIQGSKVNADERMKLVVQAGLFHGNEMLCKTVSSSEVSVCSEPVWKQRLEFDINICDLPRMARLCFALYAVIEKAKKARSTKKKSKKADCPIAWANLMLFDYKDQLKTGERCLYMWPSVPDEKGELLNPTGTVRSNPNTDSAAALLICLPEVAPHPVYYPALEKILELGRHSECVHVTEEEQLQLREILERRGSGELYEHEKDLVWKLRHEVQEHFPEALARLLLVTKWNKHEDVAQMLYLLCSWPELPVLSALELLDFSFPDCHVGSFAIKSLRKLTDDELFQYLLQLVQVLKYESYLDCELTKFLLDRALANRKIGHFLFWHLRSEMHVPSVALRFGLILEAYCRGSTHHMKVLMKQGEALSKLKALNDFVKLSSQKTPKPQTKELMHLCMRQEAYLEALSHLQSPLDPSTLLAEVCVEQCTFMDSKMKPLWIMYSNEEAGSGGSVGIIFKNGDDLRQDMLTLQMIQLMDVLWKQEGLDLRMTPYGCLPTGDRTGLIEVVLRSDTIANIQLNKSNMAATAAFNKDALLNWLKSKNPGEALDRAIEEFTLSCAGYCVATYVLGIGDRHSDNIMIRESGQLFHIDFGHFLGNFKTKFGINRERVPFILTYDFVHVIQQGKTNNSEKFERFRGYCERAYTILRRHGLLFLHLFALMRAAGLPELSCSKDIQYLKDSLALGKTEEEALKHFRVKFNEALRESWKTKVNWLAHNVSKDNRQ
human phosphoinositide-3 kinase (PI3K) delta, sequence (Q63787 whole entry partner): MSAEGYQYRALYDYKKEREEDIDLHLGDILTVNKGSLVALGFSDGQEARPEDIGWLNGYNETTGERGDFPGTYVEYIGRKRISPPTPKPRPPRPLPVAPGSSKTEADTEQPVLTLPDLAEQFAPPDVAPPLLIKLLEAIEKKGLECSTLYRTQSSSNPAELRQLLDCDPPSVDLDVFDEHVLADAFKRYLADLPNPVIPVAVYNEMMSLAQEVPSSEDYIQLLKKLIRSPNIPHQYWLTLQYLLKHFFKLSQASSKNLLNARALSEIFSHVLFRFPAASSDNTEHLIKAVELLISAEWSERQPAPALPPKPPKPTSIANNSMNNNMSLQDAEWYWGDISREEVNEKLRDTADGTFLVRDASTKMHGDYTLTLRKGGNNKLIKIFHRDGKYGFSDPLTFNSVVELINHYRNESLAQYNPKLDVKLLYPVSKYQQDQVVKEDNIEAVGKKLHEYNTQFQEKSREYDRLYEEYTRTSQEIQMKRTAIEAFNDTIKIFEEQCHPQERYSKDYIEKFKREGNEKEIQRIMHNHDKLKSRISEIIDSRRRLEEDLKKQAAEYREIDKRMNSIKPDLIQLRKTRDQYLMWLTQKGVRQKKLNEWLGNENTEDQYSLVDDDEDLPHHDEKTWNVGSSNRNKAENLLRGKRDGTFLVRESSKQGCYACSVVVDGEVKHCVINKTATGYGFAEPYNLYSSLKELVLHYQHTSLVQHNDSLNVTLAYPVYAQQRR
human phosphoinositide-3 kinase (PI3K) alpha, sequence (P42336 whole entry): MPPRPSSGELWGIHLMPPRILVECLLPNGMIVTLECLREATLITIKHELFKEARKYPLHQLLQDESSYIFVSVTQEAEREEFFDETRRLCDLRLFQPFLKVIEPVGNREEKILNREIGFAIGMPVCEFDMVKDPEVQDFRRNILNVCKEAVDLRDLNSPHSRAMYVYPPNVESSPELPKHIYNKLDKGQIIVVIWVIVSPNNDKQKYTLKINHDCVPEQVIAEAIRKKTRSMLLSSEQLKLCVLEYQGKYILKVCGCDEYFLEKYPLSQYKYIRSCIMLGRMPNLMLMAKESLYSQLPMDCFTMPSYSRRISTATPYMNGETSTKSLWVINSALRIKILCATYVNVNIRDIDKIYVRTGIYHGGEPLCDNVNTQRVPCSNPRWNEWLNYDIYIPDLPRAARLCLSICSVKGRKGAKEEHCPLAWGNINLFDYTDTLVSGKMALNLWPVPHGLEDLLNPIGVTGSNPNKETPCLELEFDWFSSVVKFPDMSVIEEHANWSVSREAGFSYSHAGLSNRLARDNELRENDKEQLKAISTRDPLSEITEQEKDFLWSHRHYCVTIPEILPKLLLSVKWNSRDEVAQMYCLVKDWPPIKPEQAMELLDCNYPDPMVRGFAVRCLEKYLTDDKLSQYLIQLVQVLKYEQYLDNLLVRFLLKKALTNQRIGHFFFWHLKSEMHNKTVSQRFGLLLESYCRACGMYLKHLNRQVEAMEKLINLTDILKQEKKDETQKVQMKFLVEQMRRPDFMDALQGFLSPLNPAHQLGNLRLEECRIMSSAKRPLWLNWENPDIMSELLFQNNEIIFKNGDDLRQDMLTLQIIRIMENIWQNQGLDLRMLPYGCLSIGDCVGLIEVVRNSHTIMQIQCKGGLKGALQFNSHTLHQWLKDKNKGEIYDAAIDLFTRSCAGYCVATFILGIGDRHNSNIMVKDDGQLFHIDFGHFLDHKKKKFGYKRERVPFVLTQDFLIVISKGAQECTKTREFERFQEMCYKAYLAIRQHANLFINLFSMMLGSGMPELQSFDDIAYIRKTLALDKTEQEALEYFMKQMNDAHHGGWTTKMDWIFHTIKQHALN
human phosphoinositide-3 kinase (PI3K) alpha, sequence (Q63787 whole entry partner): as the sequence (Q63787 whole entry partner) above

Q: Which IC50 [1] does the source give for `Cc1ncc(-c2cccc3nc([C@@H]4C[C@H](O)CN4c4nc(N)nc(C)c4C#N)n(-c4ccccc4)c(=O)c23)cn1` [Example 23, 2-Amino-4-((2S,4S)-4-hydroxy-2-(5-(2-methylpyrimidin-5-yl)-4-oxo-3-phenyl-3,4-dihydroquinazolin-2-yl)pyrrolidin-1-yl)-6-methylpyrimidine-5-carbonitrile] here?
A: > 10000 nM

Q: And the IC50 (PI 3-Kinase Gamma)?
A: 11 nM

Q: And the IC50 [2]?
A: 13 nM
